Test results as given in ChEMBL document CHEMBL3507680, “University of Dundee, Gates Library screen for HepG2 cell viability”.

Experiment: Human HepG2 cell viability assay in 384 well format
Format: toxicity, cell-based
Design: dose 125 nL, time 70.5 hour; cytotoxicity at 70.5 h: concentration not given beside the values
Settings: HepG2 cells, read-out: Inhibition

Structure (SMILES) | cytotoxicity at 70.5 h
CNC(=O)C1CCCN(C(=O)c2cncs2)C1 (stereo unspecified) | -9.62%
Cc1nc(C(=O)N[C@H]2COC[C@@H]2N2CCCCC2)cs1 | 17.8%
COCC(=O)N[C@H]1C[C@@H](Cc2cc(CN3CCOCC3)on2)C1(C)C | 11.2%
CC(C)c1csc(C2CCCN(C(=O)Cn3ccccc3=O)C2)n1 (stereo unspecified) | 23.3%
COCCNC(=O)c1cc(S(=O)(=O)N2CCCCCC2)cs1 | 15.3%
CCNC(=O)c1nnc2ccc(N3CCOCC3)cc2n1 | 12.6%
O=C(CC1CCCC1)N1CCC2(CCN2Cc2ccc(F)cc2)C1 (stereo unspecified) | 1.62%
CCN(CC)C(=O)c1nc2c(s1)CCN(Cc1cccc(OC)c1)CC2 | -11.2%
Cc1cn2c(=O)c(-c3ccnc(N(C)C4CCCCC4)n3)cnc2s1 | -3.7%
Cc1cccc(Cn2ccc(NS(C)(=O)=O)n2)c1 | -4.99%
O=C(c1ccnc(N2CCOC(C(F)(F)F)C2)c1)N1CCCC1 (stereo unspecified) | 8.43%
Cn1cnc(S(=O)(=O)N2CCCC2)c1Cl | -10.3%
CC(NC(=O)N(C)Cc1cccc(OC(F)F)c1)c1nncn1C (stereo unspecified) | -5.84%
CCc1c(C)nc2cc(-c3nccn3C)nn2c1N1CCCC(CO)C1 (stereo unspecified) | 27.9%
CCCC(C(=O)NC1CCN(S(C)(=O)=O)CC1)n1cccc1 (stereo unspecified) | -3.64%
Cc1ccc(N2CCCC(NCc3ccc(Cl)o3)C2)nn1 (stereo unspecified) | -1.97%
CC(C)CCC(=O)N1CCN(C(=O)c2ccc(-n3cccn3)cc2)CC1 | -3.97%
Cc1ccc(-n2cc(C(=O)N3CCCC(n4cccn4)C3)nn2)cc1 (stereo unspecified) | -5.27%
Cc1ccc(CN2Cc3nccn3CC(Cn3cccn3)C2)s1 (stereo unspecified) | -4.41%
CC(=O)Nc1ccc(CNCc2ccc(CS(C)(=O)=O)cc2)cc1 | 15.3%
Cc1ccccc1OCC(=O)N1CC[C@]2(C[C@@H](OCC3CC3)CO2)C1 | -1.4%
CC(C)c1nnc2n1CCN(C(=O)c1cnc(C3CC3)s1)C2 | -7.9%
CNC(=O)NC(C)c1nc(-c2ccc(Br)cc2)no1 (stereo unspecified) | 9.87%
Cc1nc(CN2CCOC3(CCCN(c4nccs4)C3)C2)cs1 (stereo unspecified) | 4.12%

Structure (SMILES) | cytotoxicity at 70.5 h
COc1ccc(C2SCC(=O)Nc3ccsc32)cc1 (stereo unspecified) | -3.24%
Nc1ccnn1C1CCN(Cc2ccccc2)C1 (stereo unspecified) | 2.28%
O=C(NCCN1CCCCCC1=O)c1n[nH]c(=O)c2ccccc12 | -20.8%
COc1ccnc(N2CCC3(CCCN(C(C)C)C3=O)C2)n1 (stereo unspecified) | -1.71%
O=C1CCCCN1CCC(=O)N1CCCCC1c1ccc(F)cc1 (stereo unspecified) | -6.63%
Cc1cccnc1[C@H](C)NC(=O)c1cccc(CC2CCNCC2)c1 | 0.55%
COc1ccccc1C(C)(C)NC(=O)Nc1ccc(F)c(C(N)=O)c1 | -4.97%
Cc1cccc(N2Cc3c(NC4CCCC4)ncnc3N(C)CC2=O)c1 | -4.33%
Cn1cc(CCNCC2CNc3ccnn3C2)cn1 (stereo unspecified) | 1.67%
CC(C)CCNC(=O)c1c(-n2cnnn2)sc2c1CCCC2 | -0.216%
FC(F)(F)CN1CCC(CCNc2ncccn2)CC1 | 0.447%
O=C(NCCNCc1cccc2c1OCCCO2)C1CCCC1 | 14.5%
CCC(C)NC(=O)c1snnc1-c1ccc(OC)cc1 (stereo unspecified) | 0.408%
O=C(NCCSCc1ccco1)c1ccc(N2CCOCC2)cc1 | -12.3%
Cc1cn2nc(N3CCCC3Cn3cccn3)sc2n1 (stereo unspecified) | -4.17%
Cc1c(CN2CCCC(C(=O)Nc3ccccc3)C2)cc(C#N)n1C (stereo unspecified) | -2.58%
CC(=O)N(Cc1noc(C)n1)C1CCN(Cc2ncc(C(C)C)o2)C1 (stereo unspecified) | 51.4%
COCCNC(=O)CN1CCC(N2CCN(C)C2=O)CC1 | -13.2%
Cc1noc(C)c1CN1CCCC2(CCN(C(=O)N3CCOCC3)C2)C1 (stereo unspecified) | -8.84%
O=C(NCCNc1ncccn1)c1ccc(-c2ccco2)[nH]c1=O | -2.56%
NC(=O)CCn1cc(CNCc2csc(N)n2)c2ccccc21 | -2.33%
COc1ccccc1-n1cc(C(=O)NCCCn2nc(C)nc2C)cn1 | -9.68%
CC(=O)N1CC[C@H]2CC(=O)N(Cc3ccc4c(c3)OCO4)CC[C@H]2C1 | -3.96%
CCC[C@@H]1CN(C(=O)CCc2ccco2)C[C@H]1NS(C)(=O)=O | 29%

Structure (SMILES) | cytotoxicity at 70.5 h
CCc1nc(C)cc(N2CCCC(C(=O)c3ccc(OC)cc3C)C2)n1 (stereo unspecified) | 6.28%
CCCc1nnc(NC2CCN(C3CCCC3)CC2)o1 | -12.5%
CCOCCC(=O)N(C)c1ccc(F)c(Cl)c1 | -7.99%
COc1cccc([S+]([O-])CC(=O)NCc2cc(F)cc(F)c2)c1 (stereo unspecified) | -1.69%
COc1ccc(CN(C)C(=O)NC(C)c2nncn2C)cc1F (stereo unspecified) | -6.21%
O=C1CC(c2ccccc2)C2(CCN(Cc3nccs3)CC2)N1 (stereo unspecified) | -9.09%
O=C(COCC1CC1)Nc1ccn(Cc2cccc3cccnc23)n1 | -1.28%
COc1ccc(CCNC(=O)CC(NC(N)=O)c2ccccc2)cc1 (stereo unspecified) | 14.7%
COC(=O)[C@H](C)NC(=O)Cc1c(C)nc2cc(=O)[nH]n2c1C | -7.8%
c1ccc(-c2cc(CN3CCc4cncnc4C3)on2)cc1 | -4.72%
Cc1noc([C@@H]2C[C@H]3OCC[C@H]3N(C(C)C)C2)n1 | 6.58%
CC(=O)c1c(F)cccc1NC1CCN(S(=O)(=O)C2CC2)CC1 | -6.69%
Cn1ccc(C(=O)NC2CCC23CCN(C(=O)c2cnccn2)CC3)c1 (stereo unspecified) | -7.61%
CN(Cc1nnc2ccccn12)C(=O)NC1CCCCC1 | -4.44%
c1ccc(C2CCCN(c3cncc(-n4cccn4)n3)CC2)cc1 (stereo unspecified) | -9.13%
CC(C)c1nc(N2CCC(N3CCCCCC3)CC2)c2cnn(C)c2n1 | 13%
Cn1cc(CC2CCN(C(=O)NCc3cn4ccsc4n3)C2)cn1 (stereo unspecified) | 23.7%
CC(C)c1ccc(C2(C(=O)NCCS(N)(=O)=O)CCC2)cc1 | -9.09%
COc1c(CNCc2cccc(Cn3cccn3)c2)c(C)nn1C | 3.69%
Cc1ccc(CN2C[C@@H]3CN(CC4CCOCC4)CCO[C@@H]3C2)s1 | 8.99%
CCC(NS(=O)(=O)c1ccc(C(=O)NC2CC2)cc1)c1cnn(C)c1 (stereo unspecified) | -8.25%
CCC[C@H]1CN(CCS(C)(=O)=O)C[C@@H]1NC(=O)c1cc[nH]n1 | -16%
Cc1nc(C2CCCN2CCCn2c(=O)oc3ccccc32)no1 (stereo unspecified) | 19.1%
Cn1cc(S(=O)(=O)NCC(C)(O)c2ccsc2)cn1 (stereo unspecified) | 1.13%

Structure (SMILES) | cytotoxicity at 70.5 h
Cc1cc(CN2CCC(CNC(=O)CN3CCCCCC3)C2)[nH]n1 (stereo unspecified) | 14.2%
CCN1CC(C(=O)N2CCc3cc(C(N)=O)n(C)c3C2)CC1=O (stereo unspecified) | -2.91%
CCC(CO)NC(=O)c1ccc2ccc(N(C)CC3CC3)n2c1 (stereo unspecified) | 3.39%
CC(C)N1CCc2c(c(COc3cncnc3)nn2CC2CC2)C1 | -3.91%
CCn1c(N)nc2cc(C(=O)NCc3ccccc3Cl)cnc21 | 0.502%
CC1CN=C(N2CCN(C(=O)Nc3nc(-c4ccccc4)ns3)CC2)S1 (stereo unspecified) | 9.01%
CC(C)c1nc(C2CCCN2Cc2ccncc2Cl)no1 (stereo unspecified) | -11.2%
O=C(Nc1ccc(Cn2cccn2)cc1)N1CCC2(CC1)OCCO2 | 22.5%
Cc1nc(CN2CCCN(C(=O)c3ccccn3)CC2)oc1C | -10.4%
CC(C)c1nc(C(=O)N2C[C@H](C(C)C)[C@@H](N)C2)cs1 | -0.955%
Cc1cc(S(=O)(=O)NCC(C)(C)N)c(F)cc1F | -0.878%
COC(=O)c1cccn1C1CCN(C(=O)c2cn[nH]c2C)CC1 | -1.46%
O=C(c1ccon1)N1CCN(c2ccncc2Cl)CC1 | -4.94%
Cc1cnn(Cc2cccc(OCC(N)=O)c2)c1 | -1.49%
CCc1noc(CN2CCN(C(=O)OC(C)(C)C)C(C)C2)n1 (stereo unspecified) | 2.89%
CC(=O)Nc1nc(CN2CCn3c(C)nnc3C2)cs1 | -2.82%
Cc1cnc(N2CCc3ncnc(N4CCN(C)CC4)c3CC2)nc1 | -2.07%
C[C@@H]1CN(Cc2ccccc2)CCN1C(=O)NCc1nccs1 | 0.13%
OC(COCc1cccs1)CSc1nnc2ccccn12 (stereo unspecified) | 22.9%
CCc1nc(CN2CCCN(C(=O)CCCOC)CC2)cs1 | 2.4%
CC(C)CC(=O)N1CCN(c2cc(N(C)C)cnn2)CC1 | -3.64%
OC(CNCCn1cccn1)c1cccc(F)c1 (stereo unspecified) | -7.66%
c1cc(-c2ccc3c(c2)CCC32CCN(c3nncs3)CC2)ccn1 | -2.69%
O=C(Cc1ccc(F)cc1)NCC1CCN(Cc2ccsc2)CC1 | -3.3%

Structure (SMILES) | cytotoxicity at 70.5 h
O=C(O)C1(O)CCN(c2ccc3cccc(Cl)c3n2)CC1 | -20.3%
c1cc(C2CCCN2Cc2nnnn2C2CC2)cs1 (stereo unspecified) | -8.27%
Cc1cc(C(=O)N(CC(F)(F)F)C2CCOCC2)c(C)o1 | -7.23%
CCN(Cc1ccc(OC)c(F)c1)Cc1nc2c(cnn2C)c(=O)[nH]1 | -1.49%
O=C1NCCN1C1CCCN(Cc2nnc(-c3ccc(F)cc3)o2)C1 (stereo unspecified) | -21.9%
CS(=O)(=O)CCCN(CCc1cccc(F)c1)C1CC1 | 21.4%
CCN(CC)C(=O)[C@@H]1C[C@@H](n2cc(-c3ccccn3)nn2)CN1 | -3.65%
CSC(C)C(=O)NCc1ccnc(N2CCN(C)CC2)c1 (stereo unspecified) | -7.04%
CC(CO)NC(=O)Nc1ccc(CC#N)cc1 (stereo unspecified) | -4.42%
Cc1cc(NC(=O)c2ccc(Br)cc2F)n(C)n1 | 12.5%
COc1cccc2c1ccn2CCC(=O)N1CCCC(C(=O)O)C1 (stereo unspecified) | 18.7%
Cc1ccc(NC(=O)Cn2cc(I)cn2)cc1C | 20.3%
CC(=O)N1CCCC2(CN(Cc3ccc(C)s3)CCO2)C1 (stereo unspecified) | 0.871%
CCC1CN(CC(=O)NCC(C)C)CCO1 (stereo unspecified) | -10.6%
O[C@@H]1CCN(CC2CCOC2)[C@H]1Cc1cccnc1 (stereo partly specified) | -12.1%
CCCNC(=O)Nc1ccn(CCCOC)n1 | 9.71%
CCCNC(=O)C1CCN(Cc2csc(CC)n2)CC1 | 0.277%
CNC(=O)c1cccc(CC2COCCN(Cc3ccc(C)o3)C2)n1 (stereo unspecified) | -2.79%
CCCNC(=O)CNC(=O)CCc1ccccc1Br | -7.6%
CCc1sc(C(=O)Nc2cnn(CCN(C)C)c2)cc1C | -17.9%
